The text below walks through data of patent publication US7507727B2, “Substituted quinobenzoxazine analogs and methods of using thereof” (Cylene Pharmaceuticals, Inc., priority 2003, dated 2009).

This test deals with c-Myc template DNA (c-myc quadruplex). As to the kind of experiment: Quadruplex binding / stop assay (Taq polymerase arrest, capillary electrophoresis).
Setting [1] is: read-out: S DATA, Table 1D, stop assay data.
The mark [2] stands for this setting: read-out: Stop Data c-Myc μM, concentration at which 50% of the DNA was arrested (arrested:full-length 1:1).

The structures appear in SMILES notation. Like-named read-outs stand apart in the source and are kept apart here.

With `CCCCN1CCC(CNC(=O)c2cn3c4c(c(N5CCC(N)C5)c(F)cc4c2=O)Oc2cc4ccccc4cc2-3)CC1` (stereo not drawn) [compound 1718], the IC50 under setting [1] worked out at 1.75 µM. Take `CN1CCCC1CCNc1c(F)cc2c(=O)c(C(=O)N3CC[C@@H](N)C3)cn3c2c1Oc1c-3ccc2ccccc12` (stereo partly drawn) [compound 85]: the IC50 under setting [2] came to 2.5 µM. Turning to `CN(C)CCCNC(=O)c1cn2c3c(c(N4CCC(NC(=O)OC(C)(C)C)C4)c(F)cc3c1=O)Oc1cc3ccccc3cc1-2` (stereo not drawn) [compound 242], the IC50 under setting [2] turned out to be 1.75 µM. For `CN1CCCC1CCNC(=O)c1cn2c3c(c(NCc4ccco4)c(F)cc3c1=O)Oc1cc3ccccc3cc1-2` (stereo not drawn) [compound 1755], the IC50 under setting [1] was 4.2 µM. For the molecule `O=C(NCCCN1CCOCC1)c1cn2c3c(c(NCCCN4CCOCC4)c(F)cc3c1=O)Oc1ccccc1-2` [compound 1560], the IC50 under setting [1] is more than 15 µM.

`CC1CCCC(C)N1CCCNc1c(F)cc2c(=O)c(C(=O)NCCC3CCCN3C)cn3c2c1Oc1cc2ccccc2cc1-3` (stereo not drawn) [compound 1687]: the IC50 under setting [1] was 1.75 µM. `CN1CCCC1CCNC(=O)c1cn2c3c(c(N(C)C4CCNC4)c(F)cc3c1=O)Oc1cc3ccccc3cc1-2` (stereo not drawn) [compound 1502]: the IC50 under setting [1] is 0.75 µM.

On to `CN1CCCC1CCNC(=O)c1cn2c3c(c(C4C[C@@H](N)[C@H](c5ccccc5)C4)c(F)cc3c1=O)Oc1cc3ccccc3cc1-2` (stereo partly drawn) [compound 458], for which, under setting [2], the IC50 turned out to be 0.75 µM. With `CN(C)CCCCNC(=O)c1cn2c3c(c(N4CCC(NC(=O)OC(C)(C)C)C4)ccc3c1=O)Oc1cc3ccccc3cc1-2` (stereo not drawn) [compound 1538], the IC50 under setting [1] is 1 µM. For the molecule `CC(C)(C)OC(=O)NC1CCN(c2c(F)cc3c(=O)c(C(=O)NCCc4cnc[nH]4)cn4c3c2Oc2cc3ccccc3cc2-4)C1` (stereo not drawn) [compound 181], under setting [2], the IC50 amounted to 1.75 µM. For the molecule `CCN(CC)C(=O)C1CCCN(c2c(F)cc3c(=O)c(C(=O)NCCC4CCCN4C)cn4c3c2Oc2cc3ccccc3cc2-4)C1` (stereo not drawn) [compound 1479], the IC50 under setting [1] was determined as 1.75 µM. Take `COc1ccc2[nH]cc(CCNC(=O)c3cn4c5c(c(N6CCC(N)C6)c(F)cc5c3=O)Oc3cc5ccccc5cc3-4)c2c1` (stereo not drawn) [compound 1699]: under setting [1], the IC50 was 1.75 µM. Turning to `CC1CCCCN1CCCNc1c(F)cc2c(=O)c(C(=O)NCCC3CCCN3C)cn3c2c1Oc1cc2ccccc2cc1-3` (stereo not drawn) [compound 557], the IC50 under setting [2] is 0.375 µM.

In the case of `O=C(c1cn2c3c(c(NCCN4CCOCC4)c(F)cc3c1=O)Oc1ccccc1-2)N1CCC(N2CCCC2)CC1` [compound 1613], under setting [1], the IC50 was more than 15 µM. As for `NC1CCN(c2c(F)cc3c(=O)c(C(=O)NCCN4CCCCC4)cn4c3c2Oc2cc3ccccc3cc2-4)C1` (stereo not drawn) [compound 195], the IC50 under setting [2] was determined as 1.75 µM. Consider `CN1CCCC1CCNC(=O)c1cn2c3c(c(NC4CN5CCC4CC5)c(F)cc3c1=O)Oc1cc3ccccc3cc1-2` (stereo not drawn) [compound 435], for which, under setting [2], the IC50 stood at 0.75 µM. Consider `Nc1c(F)c(N2CCC(N)C2)c2c3c1c(=O)c(C(=O)NCCN1CCOCC1)cn3-c1cc3ccccc3cc1O2` (stereo not drawn) [compound 238], for which the IC50 under setting [2] came out at 1.75 µM.

`CN1CCCC1CCNc1c(F)cc2c(=O)c(C(=O)NCCCN3CCOCC3)cn3c2c1Oc1cc2ccccc2cc1-3` (stereo not drawn) [compound 122]: the IC50 under setting [2] is 1.75 µM. With `CN(C)CC(C)(C)CNC(=O)c1cn2c3c(c(N4CCC(NC(=O)OC(C)(C)C)C4)c(F)cc3c1=O)Oc1ccccc1-2` (stereo not drawn) [compound 1590], under setting [1], the IC50 was more than 15 µM. As for `COC(=O)C(CO)NC(=O)c1cn2c3cc4c(=O)c5ccccc5c(=O)c4cc3oc3c(NCCN4CCCC4)c(F)cc(c1=O)c32` (stereo not drawn) [compound 345], the IC50 under setting [2] was found to be 0.9 µM. Still for that read-out and setting: then `O=C(NCCCN1CCOCC1)c1cn2c3cc4c(=O)c5ccccc5c(=O)c4cc3oc3c(NCCCN4CCOCC4)c(F)cc(c1=O)c32` [compound 166], with 1.75 µM.

`CCN(CC)CCCCNC(=O)c1cn2c3c(c(N4CCC(c5cnccn5)C4)c(F)cc3c1=O)Oc1ccc(Cl)cc1-2` (stereo not drawn) [compound 1802]: the IC50 under setting [1] stood at 4 µM. Regarding `CC(CNc1c(F)cc2c(=O)c(C(=O)NCCC3CCCN3C)cn3c2c1Oc1cc2ccccc2cc1-3)Oc1ccccn1` (stereo not drawn) [compound 1750], under setting [1], the IC50 was 9.7 µM. As for `O=C(NCCCN1CCOCC1)c1cn2c3c(c(NCCN4CCCC4)c(F)cc3c1=O)Oc1cc3ccccc3cc1-2` [compound 69], the IC50 under setting [2] is 2.5 µM. For `CC(C)(C)OC(=O)NC1CCN(C(=O)c2cn3c4c(c(NCCCN5CCOCC5)c(F)c(N)c4c2=O)Oc2cc4ccccc4cc2-3)C1` (stereo not drawn) [compound 219], the IC50 under setting [2] is 1.75 µM. In the case of `CC1CCCCN1CCCNc1c(F)cc2c(=O)c(C(=O)NCCC3CCCN3C)cn3c2c1Oc1cc2ccccc2cc1-3` (stereo not drawn) [compound 259], the IC50 under setting [2] came out at 1.75 µM. Take `CC(O)CNc1c(F)cc2c(=O)c(C(=O)NCCC3CCCN3C)cn3c2c1Oc1cc2ccccc2cc1-3` (stereo not drawn) [compound 283]: the IC50 under setting [2] was 1.75 µM. On to `CN1CCN(C(=O)c2cn3c4c(c(N5CC[C@@H](NC(=O)CNCCC6CCCN6C)C5)c(F)cc4c2=O)Oc2cc4c(cc2-3)oc2ccccc24)CC1` (stereo partly drawn) [compound 411], for which the IC50 under setting [2] worked out at 0.75 µM. As to `CN(C)CCCCNc1c(F)cc2c(=O)c(C(=O)O)cn3c4cc5oc6cc([N+](=O)[O-])ccc6[nH]c5cc4oc1c23` [compound 19], the IC50 under setting [2] stood at 0.75 µM.

Regarding `CC(C)NCCCNc1c(F)cc2c(=O)c(C(=O)N3CCOCC3)cn3c2c1Oc1cc2ccccc2cc1-3` [compound 316], the IC50 under setting [2] is 1 µM. As to `CC1CCCCN1CCCNC(=O)c1cn2c3c(c(N4CCC(NC(=O)OC(C)(C)C)C4)c(F)cc3c1=O)Oc1cc3ccccc3cc1-2` (stereo not drawn) [compound 185], the IC50 under setting [2] turned out to be 1.75 µM. Take `CC(C)N1CCN(c2c(F)cc3c(=O)c(C(=O)N4CCC(NC(=O)OC(C)(C)C)C4)cn4c3c2Oc2ccccc2-4)CC1` (stereo not drawn) [compound 1564]: the IC50 under setting [1] is more than 15 µM. On to `CN1CCN(CCCNCCC(=O)N[C@@H]2CCN(c3c(F)cc4c(=O)c(C(=O)NCCN5CCCC5)cn5c4c3Oc3cc4c(cc3-5)oc3ccccc34)C2)CC1` [compound 403], for which the IC50 under setting [2] was found to be 0.75 µM. For the molecule `CN1CCN(CCCNC(=O)c2cn3c4cc5c(=O)c6ccccc6c(=O)c5cc4oc4c(NCCC5CCCN5C)c(F)cc(c2=O)c43)CC1` (stereo not drawn) [compound 165], the IC50 under setting [2] came to 1.75 µM. As for `CCN(CC)CCCC(C)NC(=O)c1cn2c3c(c(N4CCC(NC(=O)OC(C)(C)C)C4)c(F)cc3c1=O)Oc1cc3ccccc3cc1-2` (stereo not drawn) [compound 241], under setting [2], the IC50 was 1.75 µM. In the case of `CN1CCCC1CCNC(=O)c1cn2c3c(c(SCCc4cnccn4)c(F)cc3c1=O)Oc1cc3ccccc3cc1-2` (stereo not drawn) [compound 1760], the IC50 under setting [1] worked out at 1.85 µM.

As for `N=C(N)NCCCNC(=O)c1cn2c3c(c(N4CC5CCCNC5C4)c(F)cc3c1=O)Oc1cc3ccccc3cc1-2` (stereo not drawn) [compound 327], the IC50 under setting [2] was 1 µM. For `N=C(N)NCCNC(=O)c1cn2c3c(c(NCCN4CCCC4)c(F)cc3c1=O)Oc1cc3ccccc3cc1-2` [compound 561], under setting [2], the IC50 was found to be 0.34 µM. Consider `NC1CCN(c2c(F)cc3c(=O)c(C(=O)NCCc4ccc(O)c(O)c4)cn4c3c2Oc2cc3ccccc3cc2-4)C1` (stereo not drawn) [compound 1706], for which, under setting [1], the IC50 was more than 15 µM. As for `O=C(NCCN1CCOCC1)c1cn2c3c(c(NCCN4CCOCC4)c(F)cc3c1=O)Oc1ccccc1-2` [compound 1605], the IC50 under setting [1] is more than 15 µM. For `CN1CCCC1CCNC(=O)c1cn2c3c(c(N4C[C@@H](N)[C@H](c5ccccc5)C4)c(F)cc3c1=O)Oc1cc3ccccc3cc1-2` (stereo partly drawn) [compound 1618], the IC50 under setting [1] was found to be 0.75 µM. Still for that read-out and setting: then `O=C(NCCN1CCCC1)c1cn2c3c(c(N4CCC(c5cnccn5)C4)ccc3c1=O)Oc1ccccc1-2` (stereo not drawn) [compound 1722], with 3 µM.
